Paper PMC5522071, “Preclinical development of G1T38: A novel, potent and selective inhibitor of cyclin dependent kinases 4/6 for use as an oral antineoplastic in patients with CDK4/6 sensitive tumors” (Oncotarget, 2017)
pEC50, pIC50, pKd: −log10 of the molar value. Where two headings read alike, the source gives them in different places.

Tests used:
CDK5/p25 = molecular target: T1, CDK5/p25 (Homo sapiens, UniProt Q00535); type: biochemical; details: 12-point dose response, singlicate, at Km for ATP
T1 construct: purchased Nanosyn, Inc. (contract assay)

FLT3 (ITD, D835V) = FLT3 (ITD, D835V) (Homo sapiens, UniProt P36888, D835V/ITD); assay: KdELECT Kd determination (DiscoveRx); type: binding
Procedure: G1T38 was profiled at DiscoveRx (Fremont, CA) using their KINOMEscan and scanMAX screening technology. Briefly, G1T38 was tested at 100 and 1000 times the biochemical IC50 as described in Figure 1B. All target kinases that responded to greater than 90% inhibition were tested as individuals for Kd determination as described in Supplementary Table 1.
Supplementary Table 1: G1T38 Kinase Interactions
KdELECT® (DiscoveRx) was used as a follow-up to quantify binding affinity of G1T38-kinase interactions identified in the primary screen. Inhibitor binding constants (Kd values) were calculated from duplicate 11-point dose-response curves for targets that elicited >90% inhibition at 100 nM.

A2058 cells = assay: Cell cycle analysis (propidium iodide, flow cytometry); type: cell-based; details: CDK4/6 independent cells (A2058), 24 hours
Procedure: (§1) Next, we assessed the ability of G1T38 to elicit a G1 arrest in normal and tumorigenic CDK4/6-dependent (HS68, WM2664, respectively) and -independent tumorigenic (A2058) cell lines. […] In CDK4/6 independent cells, the compound had no effect on the percentage of S-phase cells (as shown by arrow in Supplementary Figure 1). A dose dependent increase of cells in the G1 phase of the cell cycle was observed when CDK4/6 dependent WM2664 cells were treated with G1T38 for 24 hours (Figure 1C). This arrest was maintained through 300 nM, more than 300x the biochemical IC50. […] The CDK4/6-independent cell line (A2058) was not affected by treatment with G1T38. […]
(§2) 100, 300 or 1000 nM) for 24 hours. Western blot method human breast cancer. […]
(§3) Cell cycle analysis Pharmaceuticals.
(§4) final concentration. […] The dose levels
(§5) cold methanol (Sigma) and stored at -20°C. […]
(§6) Albumin (BSA), Fraction V (Fisher Scientific).

WM2664 cells = assay: as above; type: cell-based; details: for pEC50: Homo sapiens, WM 266-4, read-out: EC50 of G1 arrest
Procedure: as §1, §2, §3, §4, §5, §6

[1] = test system: RB phosphorylation (Ser807/811) in WM2664 cells; assay: Western blot for pRb and total Rb; type: cell-based
Procedure: Once phosphorylated, RB dissociates from cell cycle-promoting transcription factors, allowing them to drive the G1 to S-phase transition. Therefore, CDK4/6 inhibition of RB phosphorylation will arrest cells in G1. To assess the effect of G1T38 on RB phosphorylation, WM2664 cells were treated with varying doses of G1T38 for 24 hours. After treatment, cells were harvested and phosphorylation of RB at the Ser807/811 sites was evaluated via immunoblotting. Phosphorylation of RB at Ser807/811 sites first requires binding of CDK4/6 [3] in order to progress into S-phase. […] To determine the kinetics of CDK4/6 inhibition on RB phosphorylation, WM2664 cells were treated with 300 nM G1T38 for 1, 4, 8, 16, and 24 hours.
WM2664 cells were either treated for dose response (3, 10, 30, 100, 300 or 1000 nM) for 24 hours or a time course (1, 4, 8, 16 or 24 hours) with 300 nM G1T38. Whole cell extracts were prepared using 1x radioimmunoprecipitation assay buffer (RIPA) (ThermoFisher) containing 1x HALT® protease and phosphatase inhibitors (ThermoFisher). Total protein concentration was determined by using the bicinchoninic acid (BCA) Protein Assay Kit (PIERCE/ ThermoFisher), according to manufacturer's instructions. 20 micrograms of protein were heat denatured for 10 minutes at 70°C and resolved by Novex® NuPAGE® SDS-PAGE gel system (ThermoFisher) at 200 volts, constant current and transferred to 0.45 μm nitrocellulose membrane (Life Technologies) in 1 x Transfer buffer (Life Technologies) plus 20% methanol (Sigma-Aldrich (St. Louis, MO) by electroblotting at 35 volts, constant current. Membranes were blocked in LiCor Membrane Blocking Buffer (Lincoln, NE) and incubated overnight with either rabbit anti-pRb (Ser807/811, CST-9308) antibody (Cell Signaling Technology (Danvers, MA) at a 1:500 dilution or mouse anti-Rb (CST-9309) at a 1:2,000 dilution and mouse α-tubulin (CST-3873) antibody (Cell Signaling Technology) at a 1:1,000 dilution, as a loading control. […] Blots were incubated for one hour, washed and imaged using LiCor ImageStudio software (Version 4.0.21).

[2] = 28-day repeat-dose GLP toxicity study; type: in vivo; details: rat
[3] = 28-day repeat-dose GLP toxicity study; type: in vivo; details: dog

T1 sequence (Q00535 whole entry): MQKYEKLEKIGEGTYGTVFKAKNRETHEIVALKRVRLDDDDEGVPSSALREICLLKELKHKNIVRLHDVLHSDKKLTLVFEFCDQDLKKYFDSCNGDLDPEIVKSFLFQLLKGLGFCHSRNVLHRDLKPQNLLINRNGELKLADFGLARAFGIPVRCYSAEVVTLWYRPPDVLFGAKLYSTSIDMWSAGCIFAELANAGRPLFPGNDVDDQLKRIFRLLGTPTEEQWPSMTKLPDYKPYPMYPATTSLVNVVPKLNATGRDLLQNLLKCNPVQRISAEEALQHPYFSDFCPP
T1 sequence (Q15078 99-307 partner limits assumed): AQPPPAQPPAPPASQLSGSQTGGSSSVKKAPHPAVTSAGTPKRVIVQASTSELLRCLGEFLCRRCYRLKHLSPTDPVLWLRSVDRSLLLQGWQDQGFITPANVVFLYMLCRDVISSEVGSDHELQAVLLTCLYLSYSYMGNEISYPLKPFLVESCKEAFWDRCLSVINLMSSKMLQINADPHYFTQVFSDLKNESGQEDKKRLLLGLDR

## CC(C)N1CCN(c2ccc(Nc3ncc4cc5n(c4n3)C3(CCCCC3)CNC5=O)nc2)CC1.Cl.Cl [G1T38, 2′-((5-(4-isopropylpiperazin-1-yl)pyridin-2-yl)amino)-7′, 8′dihydro-6′Hspiro[cyclohexane1,9′ pyrazino[1′,2′:1,5]pyrrolo[2,3-d]pyrimidin]-6′-one di-hydrochloride]
CDK5/p25
  pIC50: 5.92
FLT3 (ITD, D835V)
  pKd: 7.66
A2058 cells
  effect on the percentage of S-phase cells: no effect
WM2664 cells; HS68 and WM2664, at the concentrations tested
  cytotoxicity (sub2N fraction): not cytotoxic
WM2664 cells; CDK4/6 dependent cells, 24 hours (Figure 1C)
  pEC50: ~7.70
WM2664 cells; WM2664 cells, text of discussion
  pEC50: 7.70
[1]; 300 nM
  time to near complete inhibition of RB phosphorylation post-treatment: ≤ 16 h
  time to reduced RB phosphorylation post-treatment: ≤ 1 h
[1]; 300 nM exposure, 24 hours
  inhibition of RB phosphorylation (figure legend): complete inhibition
[1]; 30-1000 nM, 24 hours
  inhibition of RB phosphorylation compared to vehicle controls: complete inhibition
[2]
  findings on oral administration: reduction of bone marrow cellularity and lymphocyte depletion
[3]
  findings on oral administration: reduction of bone marrow cellularity and lymphocyte depletion
